Consider one molecule from US7368286B2, “Method and device for identifying substances capable of modulating adipocyte differentiation” (Genfit, priority 2002, dated 2008).

SMILES strings stand for the structures.

For this assay, the system named is aP2 and PPAR GAMMA receptor mRNA in 3T3-L1 cells. The assay can be described thus: Northern blot of adipocyte markers in 3T3-L1 cells infected with MFG-Neo or MFG-REV retrovirus. Format: cell-based. As to conditions: control cells (MFG-Neo).

Description: 3T3-L1 cells were infected with either MFG-Neo or MFG-REV retrovirus and treated for 8 days with a mixture containing IBMX and insulin (“Mix”), with or without 1 μM rosiglitazone. mRNA was then extracted and analyzed by Northern blot using the indicated probes.
RNA extraction and Northern blot analyses were carried out according to the previously described method (Staels, B. et al., Arteriosclerosis and Thrombosis 1992, 12(3): 286-294) using rat Rev-erb alpha, murine PPAR gamma and murine aP2, chicken beta-actin and human 36B4 cDNA probes.
Cells post-confluent after two days of culture (designated day D0) were transferred to differentiation medium (DMEM, 10% FCS, 1 μM dexamethasone, 10 μg/ml insulin and 0.5 mM 3-methyl-1-isobutylxanthine (IBMX) (Sigma, St Louis, Mo., USA)) for two days. Cells were then grown in post-differentiation medium (DMEM, 10% FCS, insulin) with or without rosiglitazone. The medium was changed every day. Stable 3T3-L1 pre-adipocytes expressing the REV-ERB ALPHA receptor were grown in the same conditions but differentiated without dexamethasone. After the treatment, cells were fixed with 10% formaldehyde in PBS and stained with Oil Red O (Sigma, St Louis, Mo., USA). Alternatively, total RNA was extracted as described earlier.
3T3-L1 pre-adipocytes were then infected with the resulting virus. […]

Take `CN(CCOc1ccc(CC2SC(=O)NC2=O)cc1)c1ccccn1` (stereo not shown) [rosiglitazone]: the “time until high aP2 and PPAR GAMMA receptor mRNA levels were observed” value was 8 to 12 days.
